Test results: PMC3525188, “Assessment of Anticholinesterase Activity of Gelidiella acerosa: Implications for Its Therapeutic Potential against Alzheimer's Disease” (Evidence-based Complementary and Alternative Medicine : eCAM, 2012)

Tests used:
[1] = target: T1, horse serum BuChE (EC 3.1.1.8) (Equus caballus, UniProt P81908); assay: Ellman assay, Lineweaver-Burk plot, EZ-Fit; assay type: biochemical; conditions: control without extract, 0.05 M Tris-HCl pH 8.0, RT; unreliable (printed unit nM implausible beside mM substrate)
T1 construct: gene BCHE; commercial native enzyme from horse serum, Sigma
Excerpt: Ellman assay, Lineweaver-Burk plot, EZ-Fit on horse serum BuChE (EC 3.1.1.8)

[2] = target: T2, Electric eel AChE (Type-VI-S, EC 3.1.1.7) (Electrophorus electricus, UniProt O42275); assay: Ellman assay, Lineweaver-Burk plot, EZ-Fit; assay type: biochemical; conditions: control without extract, 0.05 M Tris-HCl pH 8.0, RT; unreliable (printed unit nM implausible beside mM substrate)
T2 construct: commercial native enzyme, Sigma Type VI-S
Excerpt: Ellman assay, Lineweaver-Burk plot, EZ-Fit on Electric eel AChE (Type-VI-S, EC 3.1.1.7)

T2 sequence (O42275 24-633): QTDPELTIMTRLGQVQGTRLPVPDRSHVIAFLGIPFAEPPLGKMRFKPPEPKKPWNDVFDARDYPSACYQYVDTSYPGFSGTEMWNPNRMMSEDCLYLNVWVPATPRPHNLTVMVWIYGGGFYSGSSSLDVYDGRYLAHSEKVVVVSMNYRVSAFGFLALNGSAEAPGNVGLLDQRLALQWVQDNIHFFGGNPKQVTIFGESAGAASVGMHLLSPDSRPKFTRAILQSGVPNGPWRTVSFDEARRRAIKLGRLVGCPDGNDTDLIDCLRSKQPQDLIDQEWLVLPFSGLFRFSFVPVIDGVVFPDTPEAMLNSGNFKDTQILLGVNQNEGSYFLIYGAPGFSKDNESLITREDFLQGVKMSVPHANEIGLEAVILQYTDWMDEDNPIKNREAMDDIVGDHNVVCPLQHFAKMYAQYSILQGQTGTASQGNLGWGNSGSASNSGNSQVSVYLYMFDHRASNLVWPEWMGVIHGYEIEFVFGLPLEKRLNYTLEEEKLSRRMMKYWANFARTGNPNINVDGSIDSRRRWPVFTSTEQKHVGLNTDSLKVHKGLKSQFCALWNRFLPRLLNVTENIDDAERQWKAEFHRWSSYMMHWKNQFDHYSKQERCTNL
T1 sequence (P81908 whole entry): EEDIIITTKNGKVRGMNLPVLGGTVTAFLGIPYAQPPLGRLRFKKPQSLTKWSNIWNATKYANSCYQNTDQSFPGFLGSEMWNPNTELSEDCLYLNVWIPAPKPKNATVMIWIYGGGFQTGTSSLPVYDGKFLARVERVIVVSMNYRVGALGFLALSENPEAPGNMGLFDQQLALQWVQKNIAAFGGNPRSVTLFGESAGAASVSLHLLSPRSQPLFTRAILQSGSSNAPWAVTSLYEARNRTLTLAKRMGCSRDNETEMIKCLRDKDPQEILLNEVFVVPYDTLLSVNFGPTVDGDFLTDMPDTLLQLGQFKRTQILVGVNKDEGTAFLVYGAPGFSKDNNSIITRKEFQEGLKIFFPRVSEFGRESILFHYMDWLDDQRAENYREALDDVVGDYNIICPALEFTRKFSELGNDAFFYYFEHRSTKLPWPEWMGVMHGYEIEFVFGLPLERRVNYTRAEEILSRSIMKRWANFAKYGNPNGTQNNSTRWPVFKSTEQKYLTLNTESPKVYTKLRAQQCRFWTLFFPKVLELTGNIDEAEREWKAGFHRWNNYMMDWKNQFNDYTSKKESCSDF

Structure (SMILES) | BuChE / Control [1] [nM] | AChE / Control [2] [nM]
CCCC(=O)SCC[N+](C)(C)C [butyrylthiocholine iodide] | 3.12 ± 0.87 | 
CC(=O)SCC[N+](C)(C)C [acetylthiocholine iodide] |  | 0.8774 ± 0.41
